According to patent US4753953A, “Pyridonecarboxylic acid derivatives and antibacterial pharmaceutical compositions thereof” (priority 1985, dated 1988):
Converted amounts (≈) assume the structure as drawn. Read-outs that look alike come from different tables or passages of the source.

Experiments:
Pst. micros UPI 5464-1 = assay: MIC, in vitro antibacterial activity (standard strains); assay type: cell-based; conditions: Parvimonas micra, UPI54641; 10^6 cells/ml; Gram +; read-out: MIC
B. distasonis 8503 = assay: as above; assay type: cell-based; conditions: Parabacteroides distasonis, 8503
B. fragilis 25285 = assay: as above; assay type: cell-based, Bacteroides fragilis; conditions: Bacteroides fragilis, 25285
MR S. aureus KYB 623 = assay: Therapeutic efficacy against systemic infections in mice, MR S. aureus KYB 623; conditions: Staphylococcus aureus, in Mus musculus, po, 1 h
B. fragilis 0558 = assay: MIC, in vitro antibacterial activity (standard strains); assay type: cell-based, Bacteroides fragilis; conditions: Bacteroides fragilis, 0558
[1] = test system: Pseudomonas aeruginosa V-1; assay: as above; assay type: cell-based; conditions: Pseudomonas aeruginosa, V1
[2] = test system: Citrobacter freundii IID 976; assay: as above; assay type: cell-based; conditions: Citrobacter freundii, IID976
[3] = test system: Bacteroides fragilis GM 7000; assay: as above; assay type: cell-based; conditions: Bacteroides fragilis, GM7000
[4] = test system: Veillonella parvula KYA 10790; assay: as above; assay type: cell-based; conditions: Veillonella parvula, KYA10790; 10^6 cells/ml; Gram -; read-out: MIC
C. ramosum = assay: as above; assay type: cell-based; conditions: Thomasclavelia ramosa
E. coli ML 4707 [5] = assay: Therapeutic efficacy against systemic infections in mice, E. coli ML 4707; conditions: Escherichia coli, ML4707, in Mus musculus, po, 1 h
S. pneumoniae S-4288 = assay: Therapeutic efficacy against systemic infections in mice, S. pneumoniae S-4288; conditions: Streptococcus pneumoniae, S4288, in Mus musculus, po, 1 h
[6] = test system: Bacillus subtilis PCI 219; assay: MIC, in vitro antibacterial activity (standard strains); assay type: cell-based; conditions: Bacillus subtilis, PCI219
[7] = test system: Proteus vulgaris IFO 3167; assay: as above; assay type: cell-based; conditions: Proteus vulgaris, IFO3167
K. pneumoniae 1-220S = assay: as above; assay type: cell-based, Klebsiella pneumoniae; conditions: Klebsiella pneumoniae, 1220S
[8] = test system: Morganella morganii IID 602; assay: as above; assay type: cell-based; conditions: Morganella morganii, IID602; 10^6 cells/ml; Gram -; read-out: MIC
Shigella sonnei IID 969 = assay: as above; assay type: cell-based; conditions: Shigella sonnei, IID969; 10^6 cells/ml; Gram -; read-out: MIC
Method: Minimal inhibitory concentrations (MICs) were determined in accordance with the method recommended by Japan Society of Chemotherapy.

E. coli ML 4707 [9] = assay: as above; assay type: cell-based, Escherichia coli; conditions: Escherichia coli, ML4707, 10^6 cells/ml, Gram -, Table 1
P. aeruginosa IFO 12689 = assay: as above; assay type: cell-based, Pseudomonas aeruginosa; conditions: Pseudomonas aeruginosa, IFO12689; 10^6 cells/ml; Gram -; read-out: MIC
[10] = test system: Staphylococcus aureus 209 P; assay: as above; assay type: cell-based; conditions: Staphylococcus aureus, 209P; 10^6 cells/ml; Gram +; read-out: MIC
[11] = test system: Escherichia coli NIHJ JC-2; assay: as above; assay type: cell-based; conditions: Escherichia coli, NIHJJC2; 10^6 cells/ml; Gram -; read-out: MIC
P. maltophilia GIFU 2491 = assay: as above; assay type: cell-based; conditions: Stenotrophomonas maltophilia, GIFU2491; 10^6 cells/ml; Gram -; read-out: MIC
P. mirabilis IID 994 = assay: as above; assay type: cell-based; conditions: Proteus mirabilis, IID994; 10^6 cells/ml; Gram -; read-out: MIC
[12] = test system: Serratia marcescens IID 618; assay: as above; assay type: cell-based; conditions: Serratia marcescens, IID618; 10^6 cells/ml; Gram -; read-out: MIC
[13] = test system: Enterobacter cloacae IID 977; assay: as above; assay type: cell-based; conditions: Enterobacter cloacae, IID977; 10^6 cells/ml; Gram -; read-out: MIC
F. varium KYA 8501 = assay: as above; assay type: cell-based; conditions: Fusobacterium varium, KYA8501; 10^6 cells/ml; Gram -; read-out: MIC
P. aeruginosa IID 1210 = assay: as above; assay type: cell-based, Pseudomonas aeruginosa; conditions: Pseudomonas aeruginosa, IID1210; 10^6 cells/ml; Gram -; read-out: MIC
S. pneumoniae IID 552 = assay: as above; assay type: cell-based; conditions: Streptococcus pneumoniae, IID552; 10^6 cells/ml; Gram +; read-out: MIC
[14] = test system: Acinetobacter anitratus IID 876; assay: as above; assay type: cell-based; conditions: Acinetobacter calcoaceticus, IID876
[15] = test system: Yersinia enterocolitica IID 981; assay: as above; assay type: cell-based; conditions: Yersinia enterocolitica, IID981; 10^6 cells/ml; Gram -; read-out: MIC
[16] = test system: Klebsiella pneumoniae KY(GN)6445; assay: as above; assay type: cell-based; conditions: Klebsiella pneumoniae; 10^6 cells/ml; Gram -; read-out: MIC
E. faecalis IID 682 = assay: as above; assay type: cell-based; conditions: Enterococcus faecalis, IID682
S. aureus Smith = assay: as above; assay type: cell-based, Staphylococcus aureus; conditions: Staphylococcus aureus; 10^6 cells/ml; Gram +; read-out: MIC
S. pyogenes IID 692 = assay: as above; assay type: cell-based, Streptococcus pyogenes; conditions: Streptococcus pyogenes, IID692; 10^6 cells/ml; Gram +; read-out: MIC
E. coli ATCC 10536 = assay: as above; assay type: cell-based, Escherichia coli; conditions: Escherichia coli, ATCC10536; 10^6 cells/ml; Gram -; read-out: MIC
S. epidermidis IID 866 = assay: as above; assay type: cell-based; conditions: Staphylococcus epidermidis, IID866; 10^6 cells/ml; Gram +; read-out: MIC
[17] = test system: Alcaligenes faecalis 0114002; assay: as above; assay type: cell-based; conditions: Alcaligenes faecalis, 0114002
[18] = test system: Clostridium difficile I-E; assay: as above; assay type: cell-based; conditions: Clostridioides difficile; 10^6 cells/ml; Gram +
[19] = test system: Streptococcus pyogenes (S-8); assay: as above; assay type: cell-based; conditions: Streptococcus pyogenes
[20] = test system: S. aureus IID 670 (Terajima); assay: as above; assay type: cell-based, Staphylococcus aureus; conditions: Staphylococcus aureus, IID670
[21] = test system: Salmonella enteritidis IID 604; assay: as above; assay type: cell-based; conditions: Salmonella enterica; 10^6 cells/ml; Gram -; read-out: MIC
[22] = 10^6 cells/ml, Gram -, read-out: MIC
[23] = 10^6 cells/ml, Gram +, read-out: MIC

Compound `O=C(O)c1cn(C2CC2)c2cc(N3CCNCC3)c(F)cc2c1=O` [CPFX, ciprofloxacin, reference compound] has an MIC (Pst. micros UPI 5464-1) of 0.2 µg/mL (≈ 0.604 µM), an MIC (B. distasonis 8503) of 6.25 µg/mL (≈ 18.9 µM) and an MIC (B. fragilis 25285) of 6.25 µg/mL (≈ 18.9 µM). For the same compound, the ED50 (MR S. aureus KYB 623) was 37 mg/kg, the MIC (B. fragilis 0558) was 3.13 µg/mL (≈ 9.45 µM) and the MIC [1] was 0.2 µg/mL (≈ 0.604 µM). The MIC [2] was ≤ 0.0063 µg/mL, the MIC [3] was 3.13 µg/mL (≈ 9.45 µM) and the MIC [4] was 0.2 µg/mL (≈ 0.604 µM). The MIC (C. ramosum) was 6.25 µg/mL (≈ 18.9 µM), the ED50 (E. coli ML 4707 [5]) was 1.4 mg/kg and the ED50 (S. pneumoniae S-4288) was > 100 mg/kg. The MIC [6] was 0.05 µg/mL (≈ 0.151 µM), the MIC [7] was ≤ 0.0063 µg/mL and the MIC (K. pneumoniae 1-220S) was 0.05 µg/mL (≈ 0.151 µM). For the same compound, the MIC [8] was 0.05 µg/mL (≈ 0.151 µM), the MIC (Shigella sonnei IID 969) was ≤ 0.0063 µg/mL and the MIC (E. coli ML 4707 [9]) was ≤ 0.0063 µg/mL.

For `CCn1cc(C(=O)O)c(=O)c2cc(F)c(N3CCNCC3)cc21` [NFLX, norfloxacin, reference compound], the MIC (P. aeruginosa IFO 12689) was 0.78 µg/mL (≈ 2.44 µM), the MIC [10] was 0.78 µg/mL (≈ 2.44 µM) and the MIC (B. fragilis 25285; [22]) was 25 µg/mL (≈ 78.3 µM). The MIC [11] was 0.0563 µg/mL (≈ 0.176 µM), the MIC (P. maltophilia GIFU 2491) was 6.25 µg/mL (≈ 19.6 µM) and the MIC (P. mirabilis IID 994) was 0.05 µg/mL (≈ 0.157 µM). It also gave an MIC [12] of 0.05 µg/mL (≈ 0.157 µM), an MIC (B. fragilis 0558; [22]) of 25 µg/mL (≈ 78.3 µM) and an MIC [1, 22] of 0.39 µg/mL (≈ 1.22 µM). For the same compound, the MIC [2, 22] was 0.05 µg/mL (≈ 0.157 µM), the MIC [13] was 0.1 µg/mL (≈ 0.313 µM) and the MIC [3, 22] was 25 µg/mL (≈ 78.3 µM). The MIC (F. varium KYA 8501) was 100 µg/mL (≈ 313 µM), the MIC (P. aeruginosa IID 1210) was 3.13 µg/mL (≈ 9.8 µM) and the MIC (S. pneumoniae IID 552) was 3.13 µg/mL (≈ 9.8 µM). The MIC (C. ramosum; [23]) was 50 µg/mL (≈ 157 µM), the MIC [14] was 1.56 µg/mL (≈ 4.89 µM) and the MIC [6, 23] was 0.1 µg/mL (≈ 0.313 µM). The MIC [7, 22] was 0.05 µg/mL (≈ 0.157 µM), the MIC [15] was 0.1 µg/mL (≈ 0.313 µM) and the MIC [16] was 0.05 µg/mL (≈ 0.157 µM). It also gave an MIC (E. faecalis IID 682) of 1.56 µg/mL (≈ 4.89 µM), an MIC (S. aureus Smith) of 0.78 µg/mL (≈ 2.44 µM) and an MIC (S. pyogenes IID 692) of 3.13 µg/mL (≈ 9.8 µM). The MIC (E. coli ATCC 10536) was 0.05 µg/mL (≈ 0.157 µM), the MIC (S. epidermidis IID 866) was 0.78 µg/mL (≈ 2.44 µM) and the MIC (K. pneumoniae 1-220S; [22]) was 0.1 µg/mL (≈ 0.313 µM). For the same compound, the MIC [8] was 0.05 µg/mL (≈ 0.157 µM), the MIC [17] was 1.56 µg/mL (≈ 4.89 µM) and the MIC [18] was 50 µg/mL. The MIC [19] was 1.56 µg/mL (≈ 4.89 µM), the MIC (Shigella sonnei IID 969) was 0.05 µg/mL (≈ 0.157 µM) and the MIC (E. coli ML 4707 [9]; read-out: MIC) was 0.05 µg/mL (≈ 0.157 µM). It also gave an MIC [20] of 1.56 µg/mL (≈ 4.89 µM) and an MIC [21] of 0.05 µg/mL (≈ 0.157 µM).
